Assay results from patent US7060822B1, “2-pyrazolin-5-ones” (Abbott GmbH & Co. KG, priority 1999, dated 2006).

First: CCOC(=O)C1=NNC(=O)C1=Cc1ccc[nH]1 [Example 104, 3-Ethoxycarbonyl-4-[(pyrrol-2-yl)methylene]-2-pyrazolin-5-one]
Second: CC(C)C1=NNC(=O)C1=Cc1ccc[nH]1 [Example 105, 3-Isopropyl-4-[(pyrrol-2-yl)methylene]-2-pyrazolin-5-one]
The melting point of the first is higher: 177 to 179 °C for the first, 120 to 122 °C for the second.

Compared with `O=C1NN=C(C2CCCCC2)C1=Cc1ccc[nH]1` [Example 107, 3-Cyclohexyl-4-[(pyrrol-2-yl)methylene]-2-pyrazolin-5-one], `O=C1NN=C(C2CC2)C1=Cc1ccc(CN2CCOCC2)[nH]1` [Example 109, 3-Cyclopropyl-4-[(5-morpholinomethylpyrrol-2-yl)methylene]-2-pyrazolin-5-one] is higher in melting point: 176 to 178 °C for the first, 184 to 186 °C for the second.

First: CCOC1=NNC(=O)C1=Cc1cc(Cl)c[nH]1 [Example 111, 4-[(4-Chloropyrrol-2-yl)methylene]-3-ethoxy-2-pyrazolin-5-one]
Second: CCOC1=NNC(=O)C1=Cc1cc(Br)c[nH]1 [Example 112, 4-[(4-Bromopyrrol-2-yl)methylene]-3-ethoxy-2-pyrazolin-5-one]
The melting point of the first is lower: 237 to 239 °C for the first, 242 to 244 °C for the second.

First: CCOC1=NNC(=O)C1=Cc1ccc(Cl)[nH]1 [Example 113, 4-[(5-Chloropyrrol-2-yl)methylene]-3-ethoxy-2-pyrazolin-5-one]
Second: CCOC1=NNC(=O)C1=Cc1ccc([N+](=O)[O-])[nH]1 [Example 152, 3-Ethoxy-4-[(5-nitropyrrol-2-yl)methylene]-2-pyrazolin-5-one]
The melting point of the first is lower: 170 to 172 °C for the first, 208 to 210 °C for the second.

First: Cc1[nH]c(C=C2C(=O)NN=C2c2cnccn2)c(C)c1C(=O)O [Example 118, 4-[(4-Carboxy-3,5-dimethylpyrrol-2-yl)methylene]-3-pyrazinyl-2-pyrazolin-5-one]
Second: CCc1c(C)[nH]c(C=C2C(=O)NN=C2c2cnccn2)c1C [Example 135, 4-[(3,5-Dimethyl-4-ethylpyrrol-2-yl)methylene]-3-pyrazinyl-2-pyrazolin-5-one]
The melting point of the first is lower: 225 to 228 °C for the first, 264 to 267 °C for the second.

Compared with `Cc1[nH]c(C=C2C(=O)NN=C2C2CC2)c(C)c1C(=O)OCCN(C)C` [Example 119, 3-Cyclopropyl-4-{[3,5-dimethyl-4-(2-dimethylaminoethyloxycarbonyl)pyrrol-2-yl]methylene}-2-pyrazolin-5-one], `Cc1[nH]c(C=C2C(=O)NN=C2c2cnccn2)c(C)c1C(=O)OCCN(C)C` [Example 120, 4-{[3,5-Dimethyl-4(2-dimethylaminoethyloxycarbonyl)pyrrol-2-yl]methylene}-3-pyrazinyl-2-pyrazolin-5-one] is higher in melting point: 172 to 174 °C for the first, 223 to 225 °C for the second.

Compared with `Cc1[nH]c(C=C2C(=O)NN=C2c2cnccn2)c(C)c1CN(C)C` [Example 121, 4-[(3,5-Dimethyl-4-dimethylaminomethylpyrrol-2-yl)methylene]-3-pyrazinyl-2-pyrazolin-5-one], `Cc1[nH]c(C=C2C(=O)NN=C2c2cnccn2)c(C)c1CN(C)C.O=C(O)/C=C\C(=O)O` [Example 122, 4-[(3,5-Dimethyl-4-dimethylaminomethylpyrrol-2-yl)methylene]-3-pyrazinyl-2-pyrazolin-5-one maleate] is lower in melting point: 220 to 222 °C for the first, 206 to 210 °C for the second.

First: Cc1cc(C)c(C=C2C(=O)NN=C2c2ccccn2)[nH]1 [Example 124, 4-[(3,5-Dimethylpyrrol-2-yl)methylene]-3-(2-pyridyl)-2-pyrazolin-5-one]
Second: Cc1cc(C)c(C=C2C(=O)NN=C2c2ccco2)[nH]1 [Example 127, 4-[(3,5-dimethylpyrrol-2-yl)methylene]-3-(2-furyl)-2-pyrazolin-5-one]
The melting point of the first is lower: 228 to 230 °C for the first, 235 to 237 °C for the second.

First: CCc1c(C)[nH]c(C=C2C(=O)NN=C2c2ccccn2)c1C [Example 125, 4-[(3,5-Dimethyl-4-ethylpyrrol-2-yl)methylene]-3-(2-pyridyl)-2-pyrazolin-5-one]
Second: CCc1c(C)[nH]c(C=C2C(=O)NN=C2c2ccccc2)c1C [Example 146, 4-[(3,5-Dimethyl-4-ethylpyrrol-2-yl)methylene]-3-phenyl-2-pyrazolin-5-one]
The melting point of the first is lower: 184 to 186 °C for the first, 274 to 275 °C for the second.

First: Cc1[nH]c(C=C2C(=O)NN=C2c2cnccn2)c(C)c1CN1CCOCC1 [Example 128, 4-[(3,5-dimethyl-4-morpholinomethylpyrrol-2-yl)methylene]-3-pyrazinyl-2-pyrazolin-5-one]
Second: Cc1[nH]c(C=C2C(=O)NN=C2c2cnccn2)c(C)c1CNC(=O)C(F)(F)F [Example 139, 4-[(3,5-Dimethyl-4-trifluoroacetamidomethylpyrrol-2-yl)methylene]-3-pyrazinyl-2-pyrazolin-5-one]
The melting point of the first is lower: 274 to 277 °C for the first, 302 to 305 °C for the second.

First: Cc1cc(C)c(C=C2C(=O)NN=C2c2cccs2)[nH]1 [Example 129, 4-[(3,5-dimethylpyrrol-2-yl)methylene]-3-(2-thienyl)-2-pyrazolin-5-one]
Second: Cc1[nH]c(C=C2C(=O)NN=C2c2cccs2)c(C)c1CN(C)C [Example 143, 4-[(3,5-Dimethyl-4-dimethylaminomethylpyrrol-2-yl)methylene]-3-(2-thienyl)-2-pyrazolin-5-one]
The melting point of the first is higher: 235 to 237 °C for the first, 208 to 210 °C for the second.

Compared with `CCOC(=O)c1c[nH]c(C=C2C(=O)NN=C2C2CC2)c1` [Example 130, 3-Cyclopropyl-4-[(4-ethoxycarbonylpyrrol-2-yl)methylene]-2-pyrazolin-5-one], `CCOC(=O)c1c[nH]c(C=C2C(=O)NN=C2OCC)c1` [Example 148, 3-Ethoxy-4-[(4-ethoxycarbonylpyrrol-2-yl)methylene]-2-pyrazolin-5-one] is higher in melting point: 192 to 194 °C for the first, 212 to 216 °C for the second.

First: Cc1[nH]c(C=C2C(=O)NN=C2C2CC2)c(C)c1CNC(=O)C(F)(F)F [Example 131, 3-Cyclopropyl-4-[(3,5-dimethyl-4-trifluoroacetamidomethylpyrrol-2-yl)methylene]-2-pyrazolin-5-one]
Second: Cc1[nH]c(C=C2C(=O)NN=C2C2CC2)c(C)c1CN [Example 132, 3-Cyclopropyl-4-[(4-aminomethyl-3,5-dimethylpyrrol-2-yl)methylene]-2-pyrazolin-5-one]
The melting point of the first is higher: 278 to 280 °C for the first, 217 to 219 °C for the second.

First: Cc1cc(C)c(C=C2C(=O)NN=C2c2nc3ccccc3s2)[nH]1 [Example 133, 3-(Benzothiazol-2-yl)-4-[(3,5-dimethylpyrrol-2-yl)methylene]-2-pyrazolin-5-one]
Second: CCOC(=O)c1c(C)[nH]c(C=C2C(=O)NN=C2c2ccccc2)c1C [Example 145, 4-[(3,5-Dimethyl-4-ethoxycarbonylpyrrol-2-yl)methylene]-3-phenyl-2-pyrazolin-5-one]
The melting point of the first is higher: 295 to 297 °C for the first, 216 to 217 °C for the second.

Compared with `CCOC(=O)c1c[nH]c(C=C2C(=O)NN=C2c2cnccn2)c1` [Example 136, 4-[(4-Ethoxycarbonylpyrrol-2-yl)methylene]-3-pyrazinyl-2-pyrazolin-5-one], `O=C1NN=C(c2cnccn2)C1=Cc1cc(C(=O)O)c[nH]1` [Example 137, 4-[(4-Carboxypyrrol-2-yl)methylene]-3-pyrazinyl-2-pyrazolin-5-one] is higher in melting point: 155 to 157 °C for the first, 230 to 232 °C for the second.

Compared with `CCOC(=O)c1c[nH]c(C=C2C(=O)NN=C2C2CC2)c1-c1ccccc1` [Example 140, 3-Cyclopropyl-4-[(4-ethoxycarbonyl-3-phenylpyrrol-2-yl)methylene]-2-pyrazolin-5-one], `CCOC(=O)c1c(C)[nH]c(C=C2C(=O)NN=C2C(C)Cc2ccccc2)c1C` (stereo not drawn) [Example 150, 4-[(3,5-Dimethyl-4-ethoxycarbonylpyrrol-2-yl)methylene]-3-(1-methyl-2-phenylethyl)-2-pyrazolin-5-one] is lower in melting point: 218 to 220 °C for the first, 168 to 170 °C for the second.

Compared with `Cc1[nH]c(C=C2C(=O)NN=C2c2ccco2)c(C)c1CN(C)C` [Example 142, 4-[(3,5-Dimethyl-4-dimethylaminomethylpyrrol-2-yl)methylene]-3-(2-furyl)-2-pyrazolin-5-one], `Cc1[nH]c(C=C2C(=O)NN=C2c2cccnc2)c(C)c1CN(C)C` [Example 144, 4-[(3,5-Dimethyl-4-dimethylaminomethylpyrrol-2-yl)methylene]-3-(3-pyridyl)-2-pyrazolin-5-one] is higher in melting point: 209 to 211 °C for the first, 220 to 224 °C for the second.

First: CCOC(=O)c1c[nH]c(C=C2C(=O)NN=C2OCC)c1C(=O)OCC [Example 147, 4-[(3,4-Di(ethoxycarbonyl)pyrrol-2-yl)methylene]-3-ethoxy-2-pyrazolin-5-one]
Second: CCOC1=NNC(=O)C1=Cc1[nH]c(C)c(C(=O)O)c1C [Example 151, 4-[(4-Carboxy-3,5-dimethylpyrrol-2-yl)methylene]-3-ethoxy-2-pyrazolin-5-one]
The melting point of the first is lower: 132 to 134 °C for the first, 310 to 312 °C for the second.

Compared with `CCOC(=O)c1c(C)[nH]c(C=C2C(=O)NN=C2CCc2ccccn2)c1C` [Example 149, 4-[(3,5-Dimethyl-4-ethoxycarbonylpyrrol-2-yl)methylene]-3-(2-pyridylethyl)-2-pyrazolin-5-one], `CCOC1=NNC(=O)C1=Cc1cc([N+](=O)[O-])c[nH]1` [Example 153, 3-Ethoxy-4-[(4-nitropyrrol-2-yl)methylene]-2-pyrazolin-5-one] is higher in melting point: 180 to 182 °C for the first, 287 to 289 °C for the second.

With `O=C1NN=C(C2CC2)C1=Cc1ccc(C(=O)O)[nH]1` [Example 110, 4-[(5-Carboxypyrrol-2-yl)methylene]-3-cyclopropyl-2-pyrazolin-5-one] the melting point was 220 °C (dec.).
For `O=C1NN=C(C2CC2)C1=Cc1cc(Cl)c[nH]1` [Example 114, 4[(4-Chloropyrrol-2-yl)methylene]-3-cyclopropyl-2-pyrazolin-5-one], the melting point was 220 °C (dec.).
In the case of `O=C1NN=C(C2CC2)C1=Cc1cc(Br)c[nH]1` [Example 115, 4-[(4-Bromopyrrol-2-yl)methylene]-3-cyclopropyl-2-pyrazolin-5-one], the melting point is reported as 210 °C (dec.).
In the case of `Cc1[nH]c(C=C2C(=O)NN=C2c2nc3ccccc3s2)c(C)c1CN1CCOCC1` [Example 134, 3-(Benzothiazol-2-yl)-4-[(3,5-dimethyl-4-morpholinomethylpyrrol-2-yl)methylene]-2-pyrazolin-5-one], the melting point is reported as 285 °C (dec.).
